In paper PMC11388068, “Amide naphthotube as a novel supramolecular sequestration agent for tetracaine and decamethonium” (Theranostics, 2024):
“And” between values parts separate entries of the source, which are not always exact repeats. Equal values may be shown once. Read-outs that look alike come from different tables or passages of the source.

What was measured:
[1] = system: C10-induced paralysis; assay: Mobility recovery assessment in a mouse model (Rotarod); type: in vivo, Female Balb/c mice; details: mice given C10 0.53 mg/kg, no 1b
Procedure: Mobility recovery assessment in a mouse model: the trained mice for 4 days were i.v. administered with either 4 mg/kg or 6 mg/kg of 1b, or saline, 30 seconds after administering 0.53 mg/kg C10. The mice were then placed on the rotor, and the time taken to move on the rotor for 30 seconds successfully was recorded.

[2] = system: Balb/c mice; assay: C10-induced paralysis dose in a mouse model (Rotarod); type: in vivo, Female Balb/c mice; details: C10 i.v., probit analysis
Procedure: Determination of C10-induced paralysis dose in a mouse model: The movement behavior was conducted with the Rotarod rotor (ZB-200). Female Balb/c mice (8-9 weeks old) weighing 18-22 g were placed on the Rotarod rotor and trained three times for 30 minutes, three times a day for three consecutive days. On day 4, Dixon's up-and-down method was employed to explore the effective dose: The initial dose of C10 to the first mouse was 0.6 mg/kg, and the standard dose ratio of C10 given to the adjacent mouse was 0.8. […] Conversely, in the case of a negative response, the following mouse received an increased dose. Tests were conducted sequentially, with changes in mobility response transitioning between positive and negative until at least 7 crossover points were reached. Probit analysis was employed to determine the ED50 (50% effective dose) and ED95 (95% effective dose) of C10, along with their corresponding CI (confidence intervals). Sequence diagrams and dose-response curves were generated using GraphPad Prism 9 software.

[3] = Lethal C10 poisoning mouse model (Dixon's up-and-down, probit); type: in vivo; details: Balb/c, mouse, in vivo, iv; C10 i.v., mice, probit analysis
Procedure: (§1) Lethal C10 poisoning mouse model: the lethal dose of i.v. administered C10 was calculated using Dixon's up-and-down method similar to TC. The initial dose of C10 was 0.9 mg/kg. Subsequent doses for each mouse were adjusted by ±0.1 mg/kg based on the outcome of the preceding animal.

[4] = system: mice; assay: as above; type: in vivo; details: C10 i.v., probit analysis
Procedure: as §1

[5] = Plasma pharmacokinetics of C10, saline- and 1b-treated groups; type: in vivo, Male Kunming mice; details: for AUC(0-inf) / AUC(0-t) / Cmax / MRT last / MRT inf / half-life / Vd: plasma; for MRT last: read-out: MRT0-t; for MRT inf: read-out: MRT0-∞; for half-life: read-out: T1/2z (converted); for Vd: read-out: Vz
Procedure: Male Kunming mice (30 ± 2 g) were used in the pharmacokinetic study. Drugs were injected through the tail vein of mice. Blood, liver, and kidney tissues were collected at certain intervals after administration with 6 mice at each time point. Blood samples were placed in heparin sodium tubes and centrifuged at 6000 rpm for 20 minutes at 4^ oC to obtain plasma samples. Plasma, liver and kidney tissues were stored in a freezer at -80 °C and frozen until analysis was performed. The drug concentrations were determined by Liquid chromatography-mass spectrometry (Waters ACQUITY UPLC/Xevo TQ-S). The Masslynx 4.1 software was used to obtain the peak area of the tested compounds and internal standards in each plasma sample and calculate the standard curve formula. […] The detailed pharmacokinetics experiment procedure including materials and reagents, sample preparation, establishment and validation of analytical strategy, and LC-MS conditions are described in the Supporting Information.
1.3. A dministration and collection of plasma samples
Male Kunming mice (30±2g) were randomly divided into 5 groups, namely 1b group (dose 80mg/kg, concentration 20mg/ml), C10 group (dose 0.45mg/kg, concentration 0.125mg/ml, C10 injection for 30s followed by the same volume of normal saline), 1b combined with C10 group (C10 dose 0.45 mg/kg, C10 concentration 0.125mg/ml, C10 injection for 30s followed by 1b 6 mg/kg, 1b concentration 1.5 mg/ml). Drugs were injected through the tail vein of mice. In group 1b , eyeball blood and liver and […]
after administration, with 6 mice in each time point. In the other four groups, blood and liver and kidney tissues were collected from eyeballs at 3min, 5min, 10min, 15min, 30min, 45min and 1h after administration. Six mice were selected at each time point. Blood samples were placed in heparin sodium tubes and centrifuged at 6000rpm for 20 minutes at 4℃ to obtain plasma samples. They were stored in a refrigerator at - 80 ° C and frozen until analysis. Plasma, liver and kidney tissues were stored in a freezer at - 80 ℃ and then frozen until analysis was performed.
1.4. Preparation of Calibration Standards and Quality Control (QC) Samples 1b, C10, and IS were dissolved separately in methanol to get a stock solution concentration of 1.0 mg/mL. The stock solution of the drug to be tested was then diluted with methanol to prepare the working solution. Calibration standards and QC samples were prepared by diluting the working solution with methanol. The final concentrations of C10 were 25, 250 and 1000 ng/mL, 1b final concentration of 150, 1500 and 6000 ng/mL.The final concentration of IS is 10 ng/mL.
1.5.Mouse plasma sample preparation
The plasma to be tested was thawed at room temperature, and 100 μL of mouse plasma samples were collected in 1.5 mL EP tubes. 10 μL of IS solution (10 ng/mL) and 10 μL of methanol were mixed followed by the addition of 400 μL […] (1:1 v / v), and then the tubes were vortex mixed for 3.0 min.
After centrifugation at 13,000 rpm for 20 min at 4 °C, the supernatant was transferred to a nitrogen blower, and the solvent was dried by maintaining a steady flow of nitrogen. After drying the solvent, reconstituted with 100 μL 20% aqueous methanol

[6] = system: AC16 cells; assay: Plasma membrane potential, DiBAC4(3) flow cytometry; type: cell-based, Human; details: AC16 cells exposed to TC for 10 minutes
Procedure: Determination of the plasma membrane potential: AC16 cells were seeded into 12-well plates and cultured until reaching 80-90% confluence. Following removal of the culture medium, cells were exposed to HBSS (Hank's Balanced Salt Solution) containing […] TC for 10 minutes at 37 °C. Subsequently, cells were collected and incubated with 200 nM Bis-(1,3-Dibutylbarbituric Acid)-Trimethine Oxanol (DiBAC4(3), Solarbio) for 20 minutes at 37 °C. The fluorescence intensity of cells was then assessed using flow cytometry. To determine the impact of 1b (ammonium salt) on plasma membrane potential, 25×10^4 AC16 cells were co-incubated with 400 µM TC and varying concentrations of 1b (0, 400, 800, and 2000 µM) or exclusively with 1b (2000 µM) in HBSS for 10 minutes at 37 °C. Plasma membrane potential was subsequently evaluated using the aforementioned methodology.

[7] = Lethal TC poisoning mouse model (Dixon's up-and-down, probit); type: in vivo, female Balb/c mice; details: female, Balb/c, mouse, in vivo, iv, TC i.v., mice, probit analysis
Procedure: (§2) Lethal TC poisoning mouse model: the lethal dose of i.v. administered TC was calculated in mice (8-10 week old female Balb/c mice, weighing 20-25 g) using Dixon's up-and-down method. The initial dose of TC given to the first mouse was 9.0 mg/kg, and the standard dose ratio of TC given to the adjacent mouse was 0.9. If the animal survives, the subsequent animal receives a higher dose. If the animal dies, the following animal receives a lower dose. This process was repeated until at least seven crossover points were achieved. Probit analysis was employed to determine the LD50 (50% lethal dose) and LD95 (95% lethal dose) of TC, along with their corresponding CI (confidence intervals). Sequence diagrams and dose-response curves were generated using GraphPad Prism 9 software.

[8] = system: Balb/c mice; assay: as above; type: in vivo, female Balb/c mice; details: TC i.v., probit analysis
Procedure: as §2

[9] = system: Human myocytes AC16 cell; assay: CCK-8 cytotoxicity assay in AC16 cells; type: cell-based; details: 24 h, 24 h incubation, mixtures in a 1:1 ratio
Procedure: Cells experiments: AC16 cells were cultured in DMEM/F12 with 10% FBS, 1% penicillin, and 1% streptomycin at 37 °C with 5% CO2, and passaged every 2 days. They were seeded into 96-well plates at a density of 5-8×10^3 cells per well and cultured overnight. Then, different concentrations of TC, 1a, 1b, TC@1a and TC@1b mixture solution at various concentrations (25, 50, […], […], 200, 400, 800, and 1600 μM) were added to replace the culture medium for 24 h at 37 °C. After incubation, Cell Counting Kit-8 solution (10 μL per well) was added, and cells were incubated for 4 h at 37 °C. The optical density values at 450 nm were measured using a microplate reader to assess cell viability as a percentage of control cells. Finally, IC50 values were calculated using GraphPad Prism 8.0.2 software.
The assay and cell viability were calculated as in the cell experiment above.

[10] = system: AC16 cells; assay: Intracellular sodium levels; type: cell-based, Human; details: TC 400 µM, 10 minutes
Procedure: Determination of intracellular sodium levels: 3×10^5 AC16 cells were seeded in 6-well plates with 2 mL of medium. After 12 hours, the cell medium was replaced with 400 µM TC and varying concentrations of compound 1b (ammonium salt, 0, 400, 800, and 2000 µM) or 2000 µM 1b in HBSS for 10 minutes at 37 °C. Control cells were treated with 2 mL HBSS for 10 minutes at 37 °C. After washing with PBS, cells were lysed in 300 µL of 1% Triton X-100 in saline with a 1% proteinase inhibitor cocktail from Meilunbio. The lysates were centrifuged at 12,000 ×g for 15 minutes, and the supernatant was collected for sodium level determination (7600 Modular-Hitachi-Chemistry Analyzer) and total protein content BCA assays (Epizyme Biotech). The sodium-to-protein ratio was calculated, presenting results as relative intracellular sodium content compared to the control group.

[11] = male, Kunming, mouse, iv, 0.45 mg/kg, C10 in plasma, Saline-treated Group
[12] = male, Kunming, mouse, iv, 0.45 mg/kg, C10 in plasma, 1b-treated Group

In the case of C[N+](C)(C)CCCCCCCCCC[N+](C)(C)C [C10, Decamethonium], the average recovery time [1] is reported as “approximately 402.8 seconds”, the “ED95 for inducing muscle paralysis” value [2] is reported as 0.53 mg/kg and the ED50 ([2]; Mus musculus, iv, read-out: ED50 for inducing muscle paralysis) is reported as 0.37 mg/kg. It also gave an LD50 [3] of 0.69 mg/kg, an LD95 [4] of 0.86 mg/kg and a CL ([5]; C10 in plasma, 1b-treated Group) of 1.12 ± 0.22 mL/h/g. It also gave a CL ([5]; C10 in plasma, Saline-treated Group) of 1.54 ± 0.16 mL/h/g, a Tmax [5, 11] of 3 min and an AUC(0-inf) ([5]; male, Kunming, mouse, iv, 0.45 mg/kg, C10, 1b-treated Group, read-out: area under the plasma concentration-time curve (AUC0-∞)) of 414 ± 80.9 ng·h/mL. For the same molecule, the AUC(0-inf) ([5]; male, Kunming, mouse, iv, 0.45 mg/kg, C10, saline-treated Group, read-out: area under the plasma concentration-time curve (AUC0-∞)) was 294 ± 28 ng·h/mL, the AUC(0-t) [5, 12] was 406 ± 77.2 ng·h/mL and the Cmax [5, 12] was 1630 ± 345 ng/mL. The AUC(0-inf) ([5]; male, Kunming, mouse, iv, 0.45 mg/kg, C10 in plasma, 1b-treated Group, read-out: AUC0-∞) was 414 ± 80.9 ng·h/mL, the MRT last [5, 12] was 9 ± 1.2 min and the MRT inf [5, 12] was 10.2 ± 1.8 min. For the same molecule, the half-life [5, 12] was 11.4 ± 1.2 min, the Vd [5, 12] was 0.3 ± 0.06 L/kg and the AUC(0-t) [5, 11] was 284 ± 26.4 ng·h/mL. The Cmax [5, 11] was 1310 ± 179 ng/mL, the AUC(0-inf) ([5]; male, Kunming, mouse, iv, 0.45 mg/kg, C10 in plasma, Saline-treated Group, read-out: AUC0-∞) was 294 ± 28 ng·h/mL and the MRT last [5, 11] was 6.6 ± 1.2 min. For the same molecule, the MRT inf [5, 11] was 9.6 ± 2.4 min, the half-life [5, 11] was 21.6 ± 9.6 min and the Vd [5, 11] was 0.8 ± 0.33 L/kg.

With CCCCNc1ccc(C(=O)OCCN(C)C)cc1 [TC, Tetracaine] the “mean fluorescence intensity (plasma membrane potential)” value [6] was “significant rise in mean fluorescence intensity”, the LD50 [7] was 6.92 mg/kg and the LD50 [8] was 6.9 mg/kg. The LD95 [8] was 8.749 mg/kg and 8.7 mg/kg, the IC50 [9] was 384 µM and the intracellular sodium loss [10] was “approximately 20%”.
